In ChEMBL document CHEMBL4840352 (J Med Chem, 2021):
pIC50: −log10 of the molar value.

Experiments:
MV4-11 = assay: Antiproliferative activity against human MV4-11 cells incubated for 48 hrs by CCK-8 assay; format: functional, cell-based; conditions: MV4-11, 48 h
MOLM-13 = assay: Antiproliferative activity against human MOLM-13 cells incubated for 48 hrs by CCK-8 assay; format: functional, cell-based; conditions: MOLM-13, 48 h
[1] = test system: Receptor-type tyrosine-protein kinase FLT3 (Homo sapiens), P36888 [UNDEFINED MUTATION]; assay: Induction of FLT3-ITD degradation in human MV4-11 cells after 24 hrs by Western blot analysis; format: cell-based
Receptor-type tyrosine-protein kinase FLT3 (Homo sapiens), P36888 [UNDEFINED MUTATION], sequence (P36888 whole entry, looked up, change not shown): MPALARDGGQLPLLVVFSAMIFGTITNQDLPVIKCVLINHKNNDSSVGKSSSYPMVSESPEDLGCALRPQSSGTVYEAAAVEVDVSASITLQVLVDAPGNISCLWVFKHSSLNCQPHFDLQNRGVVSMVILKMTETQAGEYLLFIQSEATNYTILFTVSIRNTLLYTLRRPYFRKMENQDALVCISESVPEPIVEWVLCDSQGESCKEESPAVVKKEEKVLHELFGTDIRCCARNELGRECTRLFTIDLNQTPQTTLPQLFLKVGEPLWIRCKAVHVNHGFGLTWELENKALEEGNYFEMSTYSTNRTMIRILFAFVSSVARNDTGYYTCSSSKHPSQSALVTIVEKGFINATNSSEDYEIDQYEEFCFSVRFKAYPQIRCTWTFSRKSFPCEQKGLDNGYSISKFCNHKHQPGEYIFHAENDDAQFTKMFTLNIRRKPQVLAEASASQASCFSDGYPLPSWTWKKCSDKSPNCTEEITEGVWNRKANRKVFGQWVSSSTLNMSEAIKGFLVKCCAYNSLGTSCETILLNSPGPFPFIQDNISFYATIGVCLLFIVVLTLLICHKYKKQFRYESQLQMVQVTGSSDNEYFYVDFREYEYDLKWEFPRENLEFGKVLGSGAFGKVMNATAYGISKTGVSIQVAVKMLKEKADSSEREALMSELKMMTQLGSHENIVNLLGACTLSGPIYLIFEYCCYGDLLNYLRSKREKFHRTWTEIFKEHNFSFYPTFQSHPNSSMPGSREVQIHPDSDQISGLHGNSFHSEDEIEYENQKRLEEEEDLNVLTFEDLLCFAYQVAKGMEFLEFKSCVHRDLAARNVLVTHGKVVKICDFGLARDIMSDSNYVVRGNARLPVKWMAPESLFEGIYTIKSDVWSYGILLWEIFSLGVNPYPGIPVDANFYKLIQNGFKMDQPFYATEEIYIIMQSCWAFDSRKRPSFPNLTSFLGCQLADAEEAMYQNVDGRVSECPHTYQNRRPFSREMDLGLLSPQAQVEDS

[2] = test system: Receptor-type tyrosine-protein kinase FLT3 (Homo sapiens), P36888 [UNDEFINED MUTATION]; assay: Induction of FLT3-ITD degradation in human MOLM-13 cells after 24 hrs by Western blot analysis; format: cell-based

Row | SMILES | pIC50 (MV4-11) | pIC50 (MOLM-13) | Activity [1] | Activity [2]
1 | Nc1c(-c2nc3cc(N4CCN(CCCCC(=O)Nc5cccc6c5CN(C5CCC(=O)NC5=O)C6=O)CC4)ccc3[nH]2)c(=O)[nH]c2cccc(F)c12 (stereo not drawn) | < 6.00 | 6.12 | – | –
2 | Nc1c(-c2nc3cc(N4CCN(C(=O)CCC#Cc5cccc6c5C(=O)N(C5CCC(=O)NC5=O)C6=O)CC4)ccc3[nH]2)c(=O)[nH]c2cccc(F)c12 (stereo not drawn) | 6.03 | < 6.00 | – | –
3 | Nc1c(-c2nc3cc(N4CCN(CCCCCCCC(=O)Nc5cccc6c5C(=O)N(C5CCC(=O)NC5=O)C6=O)CC4)ccc3[nH]2)c(=O)[nH]c2cccc(F)c12 (stereo not drawn) | < 6.00 | < 6.00 | – | –
4 | Nc1c(-c2nc3cc(N4CCN(CCCCCC(=O)Nc5cccc6c5CN(C5CCC(=O)NC5=O)C6=O)CC4)ccc3[nH]2)c(=O)[nH]c2cccc(F)c12 (stereo not drawn) | < 6.00 | < 6.00 | – | –

These reach a higher pIC50 (MV4-11). Values come first.

Row | pIC50 (MV4-11) | pIC50 (MOLM-13) | Activity [1] | Activity [2] | SMILES
5 | 6.14 | < 6.00 | – | – | Nc1c(-c2nc3cc(N4CCN(CCCCC(=O)Nc5cccc6c5C(=O)N(C5CCC(=O)NC5=O)C6=O)CC4)ccc3[nH]2)c(=O)[nH]c2cccc(F)c12 (stereo not drawn)
6 | 6.20 | 6.51 | – | – | Nc1c(-c2nc3cc(N4CCN(C(=O)CCCCC#Cc5cccc6c5C(=O)N(C5CCC(=O)NC5=O)C6=O)CC4)ccc3[nH]2)c(=O)[nH]c2cccc(F)c12 (stereo not drawn)
7 | 6.33 | 6.85 | Dose-Dependent Effect | Dose-Dependent Effect | CN1C(=O)CCC(N2C(=O)c3cccc(NCCCCCC(=O)N4CCN(c5ccc6[nH]c(-c7c(N)c8c(F)cccc8[nH]c7=O)nc6c5)CC4)c3C2=O)C1=O (stereo not drawn)
8 | 6.37 | 7.03 | – | – | Nc1c(-c2nc3cc(N4CCN(C(=O)CCCC#Cc5cccc6c5C(=O)N(C5CCC(=O)NC5=O)C6=O)CC4)ccc3[nH]2)c(=O)[nH]c2cccc(F)c12 (stereo not drawn)
